Measurements: PubChem BioAssay AID330 (DTP/NCI, 2004)
Several values for one entry are separate records, joined by “and”; a condition that tells them apart may be missing. Equal values may be shown once. Toxic doses and inconclusive results are not listed. How the source made its calls: active means survival T/C of 150% or more; inactive means T/C below 125% in these data.

Tested on: P388 leukemia ip, CD2F1 mice, survival T/C
Assay: NCI In Vivo Anticancer Drug Screen. Data for tumor model P388 Leukemia (intraperitoneal) in CD2F1 (CDF1) mice
Details: endpoint: median survival time, higher = longer survival
How it was run: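 Mice carrying the transplanted tumor received test compound or vehicle. Survival was recorded in each group, and the value is the treated-group measurement divided by that of the vehicle-treated control group.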

[1] = dose: 50.0 mg/kg/injection, schedule: Q01DX005 (ip), vehicle: saline with Tween-80
[2] = dose: 100.0 mg/kg/injection, schedule: Q01DX005 (ip), vehicle: saline with Tween-80
[3] = dose: 200.0 mg/kg/injection, schedule: Q01DX005 (ip), vehicle: saline with Tween-80
[4] = dose: 60.0 mg/kg/injection, schedule: Q01DX005 (ip), vehicle: saline with Tween-80
[5] = dose: 120.0 mg/kg/injection, schedule: Q01DX005 (ip), vehicle: saline with Tween-80
[6] = dose: 60.0 mg/kg/injection, schedule: Q01DX005 (ip), vehicle: Klucel (hydroxypropylcellulose) (HPC)
[7] = dose: 50.0 mg/kg/injection, schedule: Q01DX009 (ip), vehicle: saline
[8] = dose: 100.0 mg/kg/injection, schedule: Q01DX009 (ip), vehicle: saline
[9] = dose: 200.0 mg/kg/injection, schedule: Q01DX009 (ip), vehicle: saline
[10] = dose: 100.0 mg/kg/injection, schedule: Q01DX005 (ip), vehicle: Klucel (hydroxypropylcellulose) (HPC)

Measured: T/C

O=C1c2ccccc2C(=O)c2cc(NC(=O)C(F)(F)F)ccc21
inactive: dose: 50.0 mg/kg/injection, schedule: Q01DX005 (ip), vehicle: Klucel + Tween-80 99 % of control | dose: 100.0 mg/kg/injection, schedule: Q01DX005 (ip), vehicle: Klucel + Tween-80 95 % of control | dose: 200.0 mg/kg/injection, schedule: Q01DX005 (ip), vehicle: Klucel + Tween-80 96 % of control

C=C1C(=O)OC2/C=C(\CO)CC/C=C(/C=O)CC(O)C12 (configuration not stated)
inactive: dose: 1.89 mg/kg/injection, schedule: Q01DX005 (ip), vehicle: saline 101 % of control | dose: 3.75 mg/kg/injection, schedule: Q01DX005 (ip), vehicle: saline 101 % of control | dose: 7.5 mg/kg/injection, schedule: Q01DX005 (ip), vehicle: saline 99 % of control | dose: 15.0 mg/kg/injection, schedule: Q01DX005 (ip), vehicle: saline 96 % of control

COc1cccc(OC)c1C(=O)Nc1cccc(NC(=O)c2c(OC)cccc2OC)n1
inactive: [1] 95 % of control | [2] 93 % of control | [3] 93 % of control

CCOC(=O)ON(C)C(=O)OCC
inactive: [1] 102 % of control | [2] 102 % of control | [3] 107 % of control | dose: 400.0 mg/kg/injection, schedule: Q01DX005 (ip), vehicle: saline with Tween-80 102 % of control

CCCCCC(CSCC)C(=O)/C=C/c1ccc(Cl)c(Cl)c1 (configuration not stated)
inactive: dose: 12.5 mg/kg/injection, schedule: Q01DX009 (ip), vehicle: distilled water + Tween-80 101 % of control | dose: 25.0 mg/kg/injection, schedule: Q01DX009 (ip), vehicle: distilled water + Tween-80 105 % of control | dose: 50.0 mg/kg/injection, schedule: Q01DX009 (ip), vehicle: distilled water + Tween-80 103 % of control and 104 % of control | dose: 100.0 mg/kg/injection, schedule: Q01DX009 (ip), vehicle: distilled water + Tween-80 105 % of control and 109 % of control | dose: 200.0 mg/kg/injection, schedule: Q01DX009 (ip), vehicle: distilled water + Tween-80 120 % of control and 124 % of control | dose: 400.0 mg/kg/injection, schedule: Q01DX009 (ip), vehicle: distilled water + Tween-80 119 % of control

COc1ccc(C(C)(OC)c2cc(C(C)(C)C)c(O)c(C(C)(C)C)c2)cc1 (configuration not stated)
inactive: dose: 50.0 mg/kg/injection, schedule: Q01DX005 (ip), vehicle: saline + Tween-80 + alcohol 104 % of control | dose: 100.0 mg/kg/injection, schedule: Q01DX005 (ip), vehicle: saline + Tween-80 + alcohol 101 % of control | dose: 200.0 mg/kg/injection, schedule: Q01DX005 (ip), vehicle: saline + Tween-80 + alcohol 102 % of control

CCOC(=O)Cc1cc(=O)oc2c(CN3CCN(c4ccc(C)cc4)CC3)c(O)ccc12
inactive: [4] 100 % of control | [5] 87 % of control | dose: 240.0 mg/kg/injection, schedule: Q01DX005 (ip), vehicle: saline with Tween-80 99 % of control

CCOC(=O)c1ccc(NC(=O)Nc2ccc(Nc3ccccc3)cc2)cc1
inactive: [6] 95 % of control | dose: 120.0 mg/kg/injection, schedule: Q01DX005 (ip), vehicle: Klucel (hydroxypropylcellulose) (HPC) 92 % of control | dose: 240.0 mg/kg/injection, schedule: Q01DX005 (ip), vehicle: Klucel (hydroxypropylcellulose) (HPC) 88 % of control

CCc1cccc2c(NCCCCCCNc3c4ccccc4nc4c(CC)cccc34)c3ccccc3nc12
inactive: dose: 0.63 mg/kg/injection, schedule: Q01DX009 (ip), vehicle: other 113 % of control | dose: 1.25 mg/kg/injection, schedule: Q01DX009 (ip), vehicle: other 109 % of control | dose: 2.5 mg/kg/injection, schedule: Q01DX009 (ip), vehicle: other 112 % of control | dose: 3.75 mg/kg/injection, schedule: Q01DX009 (ip), vehicle: other 105 % of control | dose: 5.0 mg/kg/injection, schedule: Q01DX009 (ip), vehicle: other 110 % of control | dose: 7.5 mg/kg/injection, schedule: Q01DX009 (ip), vehicle: other 114 % of control | dose: 15.0 mg/kg/injection, schedule: Q01DX009 (ip), vehicle: other 96 % of control

CCOC1=NN(c2ccccc2)C(=O)C1
inactive: dose: 100.0 mg/kg/injection, schedule: Q01DX009 (ip), vehicle: saline with Tween-80 100 % of control | dose: 100.0 mg/kg/injection, schedule: Q04DX003 (ip), vehicle: saline with Tween-80 95 % of control | dose: 200.0 mg/kg/injection, schedule: Q01DX009 (ip), vehicle: saline with Tween-80 100 % of control | dose: 200.0 mg/kg/injection, schedule: Q04DX003 (ip), vehicle: saline with Tween-80 95 % of control | dose: 400.0 mg/kg/injection, schedule: Q01DX009 (ip), vehicle: saline with Tween-80 100 % of control | dose: 400.0 mg/kg/injection, schedule: Q04DX003 (ip), vehicle: saline with Tween-80 95 % of control

COC(=O)c1ccnc(-c2cc(C(=O)OC)ccn2)c1
inactive: [7] 99 % of control | [8] 93 % of control | [9] 92 % of control

CCCN=C(C)NO
inactive: dose: 50.0 mg/kg/injection, schedule: Q01DX005 (ip), vehicle: saline 98 % of control | dose: 100.0 mg/kg/injection, schedule: Q01DX005 (ip), vehicle: saline 101 % of control | dose: 200.0 mg/kg/injection, schedule: Q01DX005 (ip), vehicle: saline 102 % of control

C/C(=C\C(=O)c1ccccc1)N1CCN(c2ccc(F)cc2)CC1
inactive: dose: 50.0 mg/kg/injection, schedule: Q01DX005 (ip), vehicle: Klucel (hydroxypropylcellulose) (HPC) 102 % of control | [10] 105 % of control | dose: 200.0 mg/kg/injection, schedule: Q01DX005 (ip), vehicle: Klucel (hydroxypropylcellulose) (HPC) 96 % of control

COc1cccc(C=O)c1OS(=O)(=O)c1ccc(C)cc1
inactive: dose: 25.0 mg/kg/injection, schedule: Q01DX009 (ip), vehicle: other 101 % of control | dose: 50.0 mg/kg/injection, schedule: Q01DX009 (ip), vehicle: other 108 % of control | dose: 100.0 mg/kg/injection, schedule: Q01DX009 (ip), vehicle: other 108 % of control

NC(=O)c1cccn1Cc1ccccc1SSc1ccccc1Cn1cccc1C(N)=O
inactive: [4] 91 % of control | [5] 87 % of control

CC(C)N1COCO[C@H]2CCC[C@@H]21
inactive: dose: 25.0 mg/kg/injection, schedule: Q01DX005 (ip), vehicle: Klucel (hydroxypropylcellulose) (HPC) 113 % of control | dose: 100.0 mg/kg/injection, schedule: Q01DX001 (ip), vehicle: Klucel (hydroxypropylcellulose) (HPC) 93 % of control | [10] 113 % of control | dose: 200.0 mg/kg/injection, schedule: Q01DX001 (ip), vehicle: Klucel (hydroxypropylcellulose) (HPC) 90 % of control

CC(=O)OCc1cc(-c2nc3ccccc3[nH]c2=O)nn1-c1ccc(Cl)cc1
inactive: dose: 25.0 mg/kg/injection, schedule: Q01DX005 (ip), vehicle: distilled water + alcohol 93 % of control | dose: 50.0 mg/kg/injection, schedule: Q01DX005 (ip), vehicle: distilled water + alcohol 90 % of control | dose: 100.0 mg/kg/injection, schedule: Q01DX005 (ip), vehicle: distilled water + alcohol 86 % of control | dose: 200.0 mg/kg/injection, schedule: Q01DX005 (ip), vehicle: distilled water + alcohol 87 % of control

CC/C(=N\NS(=O)(=O)c1ccc(C)cc1)c1ccc(Br)cc1
inactive: dose: 100.0 mg/kg/injection, schedule: Q04DX002 (ip), vehicle: saline 100 % of control | dose: 200.0 mg/kg/injection, schedule: Q04DX002 (ip), vehicle: saline 105 % of control | dose: 400.0 mg/kg/injection, schedule: Q04DX002 (ip), vehicle: saline 96 % of control

O=C1N(Cc2ccccc2)[C@H]2CS(=O)(=O)C[C@@H]2N1Cc1ccccc1
inactive: [1] 87 % of control | [2] 92 % of control | [3] 86 % of control

CN(C)C1=NC(N(C)C)=C2C=CC=C12
inactive: dose: 15.0 mg/kg/injection, schedule: Q01DX005 (ip), vehicle: Klucel (hydroxypropylcellulose) (HPC) 103 % of control | dose: 30.0 mg/kg/injection, schedule: Q01DX005 (ip), vehicle: Klucel (hydroxypropylcellulose) (HPC) 97 % of control | [6] 96 % of control

CCCCOC(=O)NCNC(=O)OCCCC
inactive: dose: 50.0 mg/kg/injection, schedule: Q01DX009 (ip), vehicle: Klucel (hydroxypropylcellulose) (HPC) 99 % of control | dose: 100.0 mg/kg/injection, schedule: Q01DX009 (ip), vehicle: Klucel (hydroxypropylcellulose) (HPC) 100 % of control | dose: 200.0 mg/kg/injection, schedule: Q01DX009 (ip), vehicle: Klucel (hydroxypropylcellulose) (HPC) 94 % of control

O=C1CS(=O)(=O)CN1N1CS(=O)(=O)CC1=O
inactive: [1] 102 % of control | [2] 98 % of control | [3] 98 % of control

CN(CC(=O)N1CCOCC1)Cc1c(Cl)cccc1NC(=O)c1ccccc1
inactive: [7] 100 % of control | [8] 103 % of control | [9] 105 % of control
